Reference: patent US4500526A, “Cephalosporin derivatives” (Bristol-Myers Company, priority 1983, dated 1985)
≈ marks a conversion by molar mass, not a printed value. Read-outs that look alike come from different tables or passages of the source.

Columns and labels:
P. aeruginosa A9843 = assay: Median protective dose in infected mice; type: in vivo; conditions: Pseudomonas aeruginosa, im, immediately after intraperitoneal challenge, read-out: PD50
Protocol: (§1) The median protective dose (PD50) of some of the preferred compounds against various microorganisms was determined in mice by intramuscular administration of the test compound immediately after an intraperitoneal bacterial challenge.

E. coli Juhl = assay: Median protective dose in infected mice; type: in vivo; conditions: Escherichia coli, im, immediately after intraperitoneal challenge, read-out: PD50
Protocol: as §1

S. aureus Smith = assay: Median protective dose in infected mice; type: in vivo; conditions: Staphylococcus aureus, im, immediately after intraperitoneal challenge, read-out: PD50
Protocol: as §1

[1] = tested on: Penicillinsensitive S. aureus (5 strains); assay: MIC, two-fold serial agar dilution, group (G+)-Ia; type: cell-based; conditions: Staphylococcus aureus; (G+)-Ia, 5 strains, Mueller-Hinton agar; read-out: Geometric Mean of MIC
Protocol: (§2) In the primary evaluation of the compounds of this invention, the Minimum Inhibitory Concentrations (MIC's) of the compounds were determined by the two-fold serial agar dilution method in Mueller-Hinton agar against 32 strains of test organisms in six groups. The sample weights of the test compounds were adjusted according to the purity of each compound, so as to give a more accurate measure of the MIC's.
(G+)Ia: Penicillinsensitive S. aureus (5 strains)

[2] = tested on: Ps. aeruginosa (6 strains); assay: MIC, two-fold serial agar dilution, group (G-)-III; type: cell-based; conditions: Pseudomonas aeruginosa, read-out: Geometric Mean of MIC
Protocol: as §2
(G-)III: Ps. aeruginosa (6 strains)

[3] = tested on: Penicillinresistant S. aureus (5 strains); assay: MIC, two-fold serial agar dilution, group (G+)-Ib; type: cell-based; conditions: Staphylococcus aureus, read-out: Geometric Mean of MIC
Protocol: as §2
(G+)Ib: Penicillinresistant S. aureus (5 strains)

[4] = tested on: M. morganii (1 strain), Ent. cloacae (2 strains) and Ser. marcescens (2 strains); assay: MIC, two-fold serial agar dilution, group (G-)-II; type: cell-based; conditions: read-out: Geometric Mean of MIC
Protocol: as §2
(G-)II: M. morganii (1 strain), Ent. cloacae (2 strains) and Ser.

[5] = Mouse blood levels after single intramuscular injection; type: in vivo, mice
Protocol: The absorption of some of the preferred compounds were determined in mice following a single intramuscular injection of the test compound (dissolved in 0.1M phosphate buffer; pH 7) at a dosage of 20 mg/kg. Blood samples were collected from the orbital sinuses into heparinized capillary tubes and assayed in Nutrient Agar (pH 6.6) using E. coli Ess-22-31 as the test organism. The blood levels at various time intervals, the half-life values (t1/2) and the areas under the curve (AUC) are shown in Table 2.

[6] = tested on: Cephalothinsensitive E. coli (2 strains), Kl. pneumoniae (1 strain) and Pr. mirabilis (2 strains); assay: MIC, two-fold serial agar dilution, group (G-)-Ia; type: cell-based; conditions: 5 strains, Mueller-Hinton agar, read-out: Geometric Mean of MIC
Protocol: as §2
(G-)Ia: Cephalothinsensitive E. coli (2 strains), Kl. pneumoniae (1
strain) and Pr. mirabilis (2 strains)

[7] = tested on: Cephalothinresistant E. coli (3 strains) and Kl. pneumoniae (3 strains); assay: MIC, two-fold serial agar dilution, group (G-)-Ib; type: cell-based; conditions: Escherichia coli, read-out: Geometric Mean of MIC
Protocol: as §2
(G-)Ib: Cephalothinresistant E. coli (3 strains) and Kl. pneumoniae (3

[8] = (G-)-III, 6 strains, Mueller-Hinton agar
[9] = (G+)-Ib, 5 strains, Mueller-Hinton agar
[10] = (G-)-II, 5 strains, Mueller-Hinton agar

SMILES | ED50 (P. aeruginosa A9843) [mg/kg] | ED50 (E. coli Juhl) [mg/kg] | ED50 (S. aureus Smith) [mg/kg] | MIC [1] [µg/mL] | MIC [2, 8] [µg/mL] | MIC [3, 9] [µg/mL] | AUC ([5]; in vivo, im, 20 mg/kg) [ng·h/mL] | concentration at 10 min ([5]; in vivo, im, 20 mg/kg) [ng/mL] | concentration at 20 min ([5]; in vivo, im, 20 mg/kg) [ng/mL] | concentration at 0.5 h ([5]; in vivo, im, 20 mg/kg) [ng/mL] | concentration at 40 min ([5]; in vivo, im, 20 mg/kg) [ng/mL] | concentration at 50 min ([5]; in vivo, im, 20 mg/kg) [ng/mL] | concentration at 1 h ([5]; in vivo, im, 20 mg/kg) [ng/mL] | concentration at 1.5 h ([5]; in vivo, im, 20 mg/kg) [ng/mL] | concentration at 2 h ([5]; in vivo, im, 20 mg/kg) [ng/mL] | half-life ([5]; in vivo, im, 20 mg/kg) [min] | MIC [6] [µg/mL] | MIC [7] [µg/mL] | MIC [3] [µg/mL] | MIC [4, 10] [µg/mL] | also measured
C=CCO/N=C(\C(=O)NC1C(=O)N2C(C(=O)[O-])=C(C[n+]3ccc4scnc4c3)CSC12)c1csc(N)n1 (stereo not shown) [Ic, 7-[(Z)-2-Allyloxyimino-2-(2-aminothiazol-4-yl)acetamido]-3-{(5-thiazolo[4,5-c]pyridino)methyl}-3-cephem-4-carboxylate] | 8.6 | 0.048 | 1.1 | 0.32 (≈ 0.574 µM) | 3.9 (≈ 6.99 µM) | 0.56 (≈ 1 µM) | 12000 | 18000 | 14000 | 10000 | 8200 | 5800 | 3600 | 1900 | 1300 | 28 | 0.053 (≈ 0.095 µM) | 0.44 (≈ 0.789 µM) |  |  | MIC [4]: 0.66 µg/mL (≈ 1.18 µM)
C#CCO/N=C(\C(=O)NC1C(=O)N2C(C(=O)[O-])=C(C[n+]3ccc4sc(N)nc4c3)CS[C@H]12)c1csc(N)n1 (stereo partly shown) [If, 7-[(Z)-2-(2-Aminothiazol-4-yl)-2-(propargyloxyimino)acetamido]-3-(2-amino-5-thiazolo[4,5-c]pyridinio)methyl-3-cephem-4-carboxylate] | 3.3 | 0.013 | 0.36 | 0.3 (≈ 0.526 µM) | 2.1 (≈ 3.68 µM) |  | 9100 | 14000 | 11000 | 7300 | 4200 | 3600 | 3300 | 2000 | 1200 | 34 | 0.029 (≈ 0.0508 µM) | 0.4 (≈ 0.701 µM) | 0.8 (≈ 1.4 µM) | 0.35 (≈ 0.613 µM) | 
CO/N=C(\C(=O)NC1C(=O)N2C(C(=O)[O-])=C(C[n+]3ccc4sc(SC)nc4c3)CSC12)c1csc(N)n1 (stereo not shown) [Ii, 7-[(Z)-2-(2-Aminothiazol-4-yl)-2-methoxyiminoacetamido]-3-[{5-(2-methylthiothiazolo[4,5-c]pyridinio)}methyl]-3-cephem-4-carboxylate] |  |  |  | 0.23 (≈ 0.398 µM) |  |  | 6800 | 14000 | 10000 | 5900 | 4800 | 2400 | 1500 | 250 | < 100 | 13 | 0.025 (≈ 0.0433 µM) | 0.13 (≈ 0.225 µM) | 0.2 (≈ 0.346 µM) | 0.24 (≈ 0.415 µM) | MIC [2]: 5.5 µg/mL (≈ 9.52 µM)
Nc1nc(/C(=N/OC2(C(=O)O)CCC2)C(=O)NC2C(=O)N3C(C(=O)[O-])=C(C[n+]4ccc5sc(N)nc5c4)CS[C@H]23)cs1 (stereo partly shown) [Ik, 7-[(Z)-2-(2-Aminothiazol-4-yl)-2-(1-carboxycyclobut-1-oxyimino)-acetamido]-3-(2-amino-5-thiazolo[4,5-c]pyridinio)methyl-3-cephem-4-carboxylate] | 5.5 | 0.046 | 3 | 1.4 (≈ 2.22 µM) | 1.4 (≈ 2.22 µM) | 3.3 (≈ 5.23 µM) |  | 20000 | 16000 | 11000 | 8200 | 5200 | 4100 | 1800 | 670 | 22 | 0.015 (≈ 0.0238 µM) | 0.36 (≈ 0.571 µM) |  | 0.27 (≈ 0.428 µM) | AUC ([5]; blood, mice, 20 mg/kg im, read-out: AUC): 13000 ng·h/mL
